# How the values were obtained:
# [1] = AUC (0 to t) in F344/DuCrlCrlj rat at 0.5 mg/kg, po administered via gavage by LC-MS/MS analysis; type: ADME, organism-based; design: dose 0.5 mg/kg, dosed compound name [14C]Rivoglitazone, route oral; conditions: plasma
# [2] = AUC (0 to infinity) in F344/DuCrlCrlj rat at 0.1 mg/kg, iv administered via tail vein by LC-MS/MS analysis; type: ADME, organism-based; design: time infinity, dose 0.1 mg/kg, dosed compound name [14C]Rivoglitazone, route intravenous; conditions: plasma
# [3] = Cmax in monkey at 0.493 mg/kg, po administered via gavage by LC-MS/MS analysis; type: ADME, organism-based, Macaca mulatta; design: dose 0.493 mg/kg, dosed compound name [14C]Rivoglitazone, route oral; conditions: rhesus monkey, in vivo
# [4] = AUC (0 to t) in monkey at 0.0986 mg/kg, po administered via gavage by LC-MS/MS analysis; type: ADME, organism-based, Macaca mulatta; design: dose 0.0986 mg/kg, dosed compound name [14C]Rivoglitazone, route oral; conditions: rhesus monkey, plasma
# [5] = AUC (0 to infinity) in F344/DuCrlCrlj rat at 1 mg/kg, po administered via gavage by LC-MS/MS analysis; type: ADME, organism-based; design: time infinity, dose 1 mg/kg, dosed compound name [14C]Rivoglitazone, route oral; conditions: plasma
# [6] = Cmax in monkey at 0.0986 mg/kg, po administered via gavage by LC-MS/MS analysis; type: ADME, organism-based, Macaca mulatta; design: dose 0.0986 mg/kg, dosed compound name [14C]Rivoglitazone, route oral; conditions: rhesus monkey, in vivo
# [7] = Volume of distribution at steady state in monkey at 0.0986 mg/kg, iv administered via tail vein by LC-MS/MS analysis; type: ADME, organism-based, Macaca mulatta; design: dose 0.0986 mg/kg, dosed compound name [14C]Rivoglitazone, route intravenous; conditions: rhesus monkey, in vivo, read-out: Vdss
# [8] = Cmax in F344/DuCrlCrlj rat at 0.5 mg/kg, po administered via gavage by LC-MS/MS analysis; type: ADME, organism-based; design: dose 0.5 mg/kg, dosed compound name [14C]Rivoglitazone, route oral; conditions: in vivo
# [9] = AUC (0 to infinity) in monkey at 0.493 mg/kg, po administered via gavage by LC-MS/MS analysis; type: ADME, organism-based, Macaca mulatta; design: time infinity, dose 0.493 mg/kg, dosed compound name [14C]Rivoglitazone, route oral; conditions: rhesus monkey, plasma
# [10] = Oral bioavailability in monkey at 0.986 mg/kg administered via gavage by LC-MS/MS analysis; type: ADME, organism-based, Macaca mulatta; design: dosed compound name [14C]Rivoglitazone; conditions: rhesus monkey, in vivo
# [11] = Terminal elimination half life in F344/DuCrlCrlj rat at 0.1 mg/kg, iv administered via tail vein by LC-MS/MS analysis; type: ADME, organism-based; design: dose 0.1 mg/kg, dosed compound name [14C]Rivoglitazone, route intravenous; conditions: in vivo, read-out: beta t1/2 (converted)
# [12] = AUC (0 to t) in F344/DuCrlCrlj rat at 0.1 mg/kg, iv administered via tail vein by LC-MS/MS analysis; type: ADME, organism-based; design: dose 0.1 mg/kg, dosed compound name [14C]Rivoglitazone, route intravenous; conditions: plasma
# [13] = AUC (0 to t) in monkey at 0.493 mg/kg, iv administered via tail vein by LC-MS/MS analysis; type: ADME, organism-based, Macaca mulatta; design: dose 0.493 mg/kg, dosed compound name [14C]Rivoglitazone, route intravenous; conditions: rhesus monkey, plasma
# [14] = AUC (0 to t) in monkey at 0.493 mg/kg, po administered via gavage by LC-MS/MS analysis; type: ADME, organism-based, Macaca mulatta; design: dose 0.493 mg/kg, dosed compound name [14C]Rivoglitazone, route oral; conditions: rhesus monkey, plasma
# [15] = Apparent total clearance in monkey at 0.493 mg/kg, po administered via gavage by LC-MS/MS analysis; type: ADME, organism-based, Macaca mulatta; design: dose 0.493 mg/kg, dosed compound name [14C]Rivoglitazone, route oral; conditions: rhesus monkey, in vivo, read-out: CLt/F
# [16] = Oral bioavailability in monkey at 0.0986 mg/kg administered via gavage by LC-MS/MS analysis; type: ADME, organism-based, Macaca mulatta; design: dosed compound name [14C]Rivoglitazone; conditions: rhesus monkey, in vivo
# [17] = Terminal elimination half life in monkey at 0.493 mg/kg, po administered via gavage by LC-MS/MS analysis; type: ADME, organism-based, Macaca mulatta; design: dose 0.493 mg/kg, dosed compound name [14C]Rivoglitazone, route oral; conditions: rhesus monkey, in vivo, read-out: beta t1/2 (converted)
# [18] = AUC (0 to infinity) in monkey at 0.986 mg/kg, iv administered via tail vein by LC-MS/MS analysis; type: ADME, organism-based, Macaca mulatta; design: time infinity, dose 0.986 mg/kg, dosed compound name [14C]Rivoglitazone, route intravenous; conditions: rhesus monkey, plasma
# [19] = Oral bioavailability in F344/DuCrlCrlj rat at 0.5 mg/kg administered via gavage by LC-MS/MS analysis; type: ADME, organism-based; design: dosed compound name [14C]Rivoglitazone; conditions: in vivo
# [20] = AUC (0 to infinity) in monkey at 0.0986 mg/kg, po administered via gavage by LC-MS/MS analysis; type: ADME, organism-based, Macaca mulatta; design: time infinity, dose 0.0986 mg/kg, dosed compound name [14C]Rivoglitazone, route oral; conditions: rhesus monkey, plasma
# [21] = Drug excretion in bile duct-cannulated rat feces assessed as unchanged compound level administered through oral dose by radio-HPLC analysis; type: ADME; design: dosed compound name [14C]Rivoglitazone; conditions: read-out: Compound recovery
# [22] = AUC (0 to infinity) in F344/DuCrlCrlj rat at 0.5 mg/kg, iv administered via tail vein by LC-MS/MS analysis; type: ADME, organism-based; design: time infinity, dose 0.5 mg/kg, dosed compound name [14C]Rivoglitazone, route intravenous; conditions: plasma
# [23] = Terminal elimination half life in monkey at 0.493 mg/kg, iv administered via tail vein by LC-MS/MS analysis; type: ADME, organism-based, Macaca mulatta; design: dose 0.493 mg/kg, dosed compound name [14C]Rivoglitazone, route intravenous; conditions: rhesus monkey, in vivo, read-out: beta t1/2 (converted)
# [24] = AUC (0 to infinity) in F344/DuCrlCrlj rat at 0.1 mg/kg, po administered via gavage by LC-MS/MS analysis; type: ADME, organism-based; design: time infinity, dose 0.1 mg/kg, dosed compound name [14C]Rivoglitazone, route oral; conditions: plasma
# [25] = Terminal elimination half life in monkey at 0.986 mg/kg, iv administered via tail vein by LC-MS/MS analysis; type: ADME, organism-based, Macaca mulatta; design: dose 0.986 mg/kg, dosed compound name [14C]Rivoglitazone, route intravenous; conditions: rhesus monkey, in vivo, read-out: beta t1/2 (converted)
# [26] = Tmax in F344/DuCrlCrlj rat at 1 mg/kg, po administered via gavage by LC-MS/MS analysis; type: ADME, organism-based; design: dose 1 mg/kg, dosed compound name [14C]Rivoglitazone, route oral; conditions: in vivo
# [27] = Total clearance in monkey at 0.0986 mg/kg, iv administered via tail vein by LC-MS/MS analysis; type: ADME, organism-based, Macaca mulatta; design: dose 0.0986 mg/kg, dosed compound name [14C]Rivoglitazone, route intravenous; conditions: rhesus monkey, in vivo
# [28] = Drug excretion in F344/DuCrlCrlj rat urine/feces assessed as unchanged compound at 1 mg/kg, po administered via gavage measured during 0 to 48 hrs by radio-HPLC analysis; type: ADME, organism-based; design: dose 1 mg/kg, dosed compound name [14C]Rivoglitazone, route oral; conditions: urine and feces, read-out: Compound recovery
# [29] = AUC (0 to infinity) in monkey at 0.493 mg/kg, iv administered via tail vein by LC-MS/MS analysis; type: ADME, organism-based, Macaca mulatta; design: time infinity, dose 0.493 mg/kg, dosed compound name [14C]Rivoglitazone, route intravenous; conditions: rhesus monkey, plasma
# [30] = Drug excretion in monkey urine assessed as unchanged compound at 1 mg/kg, po administered via gavage measured during 0 to 72 hrs by radio-HPLC analysis; type: ADME, organism-based, Macaca mulatta; design: dose 1 mg/kg, dosed compound name [14C]Rivoglitazone, route oral; conditions: rhesus monkey, read-out: Compound recovery
# [31] = AUC (0 to t) in monkey at 0.986 mg/kg, iv administered via tail vein by LC-MS/MS analysis; type: ADME, organism-based, Macaca mulatta; design: dose 0.986 mg/kg, dosed compound name [14C]Rivoglitazone, route intravenous; conditions: rhesus monkey, plasma
# [32] = Terminal elimination half life in F344/DuCrlCrlj rat at 0.1 mg/kg, po administered via gavage by LC-MS/MS analysis; type: ADME, organism-based; design: dose 0.1 mg/kg, dosed compound name [14C]Rivoglitazone, route oral; conditions: in vivo, read-out: beta t1/2 (converted)
# [33] = Apparent total clearance in F344/DuCrlCrlj rat at 0.5 mg/kg, po administered via gavage by LC-MS/MS analysis; type: ADME, organism-based; design: dose 0.5 mg/kg, dosed compound name [14C]Rivoglitazone, route oral; conditions: in vivo, read-out: CLt/F
# [34] = AUC (0 to infinity) in monkey at 0.986 mg/kg, po administered via gavage by LC-MS/MS analysis; type: ADME, organism-based, Macaca mulatta; design: time infinity, dose 0.986 mg/kg, dosed compound name [14C]Rivoglitazone, route oral; conditions: rhesus monkey, plasma
# [35] = Volume of distribution at steady state in monkey at 0.493 mg/kg, iv administered via tail vein by LC-MS/MS analysis; type: ADME, organism-based, Macaca mulatta; design: dose 0.493 mg/kg, dosed compound name [14C]Rivoglitazone, route intravenous; conditions: rhesus monkey, in vivo, read-out: Vdss
# [36] = Terminal elimination half life in F344/DuCrlCrlj rat at 1 mg/kg, po administered via gavage by LC-MS/MS analysis; type: ADME, organism-based; design: dose 1 mg/kg, dosed compound name [14C]Rivoglitazone, route oral; conditions: in vivo, read-out: beta t1/2 (converted)
# [37] = Tmax in F344/DuCrlCrlj rat at 0.1 mg/kg, po administered via gavage by LC-MS/MS analysis; type: ADME, organism-based; design: dose 0.1 mg/kg, dosed compound name [14C]Rivoglitazone, route oral; conditions: in vivo
# [38] = Terminal elimination half life in monkey at 0.986 mg/kg, po administered via gavage by LC-MS/MS analysis; type: ADME, organism-based, Macaca mulatta; design: dose 0.986 mg/kg, dosed compound name [14C]Rivoglitazone, route oral; conditions: rhesus monkey, in vivo, read-out: beta t1/2 (converted)
# [39] = Terminal elimination half life in monkey at 0.0986 mg/kg, iv administered via tail vein by LC-MS/MS analysis; type: ADME, organism-based, Macaca mulatta; design: dose 0.0986 mg/kg, dosed compound name [14C]Rivoglitazone, route intravenous; conditions: rhesus monkey, in vivo, read-out: beta t1/2 (converted)
# [40] = Apparent total clearance in F344/DuCrlCrlj rat at 0.1 mg/kg, po administered via gavage by LC-MS/MS analysis; type: ADME, organism-based; design: dose 0.1 mg/kg, dosed compound name [14C]Rivoglitazone, route oral; conditions: in vivo, read-out: CLt/F
# [41] = Oral bioavailability in monkey at 0.493 mg/kg administered via gavage by LC-MS/MS analysis; type: ADME, organism-based, Macaca mulatta; design: dosed compound name [14C]Rivoglitazone; conditions: rhesus monkey, in vivo
# [42] = Retention time of the compound by LC-MS/MS analysis; type: physicochemical; design: dosed compound name [14C]Rivoglitazone
# [43] = Volume of distribution at steady state in monkey at 0.986 mg/kg, iv administered via tail vein by LC-MS/MS analysis; type: ADME, organism-based, Macaca mulatta; design: dose 0.986 mg/kg, dosed compound name [14C]Rivoglitazone, route intravenous; conditions: rhesus monkey, in vivo, read-out: Vdss
compound,measurement,setting,value
COc1ccc2nc(COc3ccc(CC4SC(=O)NC4=O)cc3)n(C)c2c1.Cl (racemic),AUC(0-t),[1],21000 ng·h/mL
same,AUC(0-inf),[2],4670 ng·h/mL
same,Cmax,[3],1330 ng/mL
same,AUC(0-t),[4],3440 ng·h/mL
same,AUC(0-inf),[5],49800 ng·h/mL
same,Cmax,[6],242 ng/mL
same,Vd,[7],0.166 L/kg
same,Cmax,[8],2090 ng/mL
same,AUC(0-inf),[9],17700 ng·h/mL
same,bioavailability,[10],76.1%
same,half-life,[11],4.55 h
same,AUC(0-t),[12],4530 ng·h/mL
same,AUC(0-t),[13],21700 ng·h/mL
same,AUC(0-t),[14],17200 ng·h/mL
same,CL/F,[15],0.485 mL/min/kg
same,bioavailability,[16],106%
same,half-life,[17],7.56 h
same,AUC(0-inf),[18],57200 ng·h/mL
same,bioavailability,[19],95%
same,AUC(0-inf),[20],4470 ng·h/mL
same,dose excreted,[21],12.6%
same,AUC(0-inf),[22],22900 ng·h/mL
same,half-life,[23],6.21 h
same,AUC(0-inf),[24],4450 ng·h/mL
same,half-life,[25],6.79 h
same,Tmax,[26],2.25 h
same,clearance,[27],0.312 mL/min/kg
same,dose excreted,[28],23.7%
same,AUC(0-inf),[29],23500 ng·h/mL
same,dose excreted,[30],0.3%
same,AUC(0-t),[31],51700 ng·h/mL
same,half-life,[32],4.35 h
same,CL/F,[33],0.352 mL/min/kg
same,AUC(0-inf),[34],43100 ng·h/mL
same,Vd,[35],0.155 L/kg
same,half-life,[36],4.5 h
same,Tmax,[37],3.25 h
same,half-life,[38],7.34 h
same,half-life,[39],6.38 h
same,CL/F,[40],0.354 mL/min/kg
same,bioavailability,[41],90.4%
same,Retention_time,[42],23 min
same,Vd,[43],0.138 L/kg
